Laboratory results published in patent US20230302013A1, “METHOD OF TREATING VIRAL-INDUCED COGNITIVE D[…] TARGETING LEAKY RyR2 CHANNELS” (The Trustees of Columbia University in the City of New York, priority 2022, published 2023).
“Also recorded” adds a separate entry of the source.

Legend:
RyR2 [1] = biological target: T1, RyR2 (Homo sapiens, UniProt Q92736); assay type: biochemical; details: COVID-19 patient brain tissue lysates (Ctx, CB) treated ex vivo with 10 μM compound at 4° C.; FIGS. 3A and B; p<0.05 vs untreated COVID-19
T1 construct: RyR2 was immunoprecipitated from 1.5 mg of tissue lysate using an anti-RyR2 specific antibody; from tissue; host or cells: brain tissue (cortex, cerebellum) of COVID-19 patients and controls
T1 sequence (Q92736 whole entry): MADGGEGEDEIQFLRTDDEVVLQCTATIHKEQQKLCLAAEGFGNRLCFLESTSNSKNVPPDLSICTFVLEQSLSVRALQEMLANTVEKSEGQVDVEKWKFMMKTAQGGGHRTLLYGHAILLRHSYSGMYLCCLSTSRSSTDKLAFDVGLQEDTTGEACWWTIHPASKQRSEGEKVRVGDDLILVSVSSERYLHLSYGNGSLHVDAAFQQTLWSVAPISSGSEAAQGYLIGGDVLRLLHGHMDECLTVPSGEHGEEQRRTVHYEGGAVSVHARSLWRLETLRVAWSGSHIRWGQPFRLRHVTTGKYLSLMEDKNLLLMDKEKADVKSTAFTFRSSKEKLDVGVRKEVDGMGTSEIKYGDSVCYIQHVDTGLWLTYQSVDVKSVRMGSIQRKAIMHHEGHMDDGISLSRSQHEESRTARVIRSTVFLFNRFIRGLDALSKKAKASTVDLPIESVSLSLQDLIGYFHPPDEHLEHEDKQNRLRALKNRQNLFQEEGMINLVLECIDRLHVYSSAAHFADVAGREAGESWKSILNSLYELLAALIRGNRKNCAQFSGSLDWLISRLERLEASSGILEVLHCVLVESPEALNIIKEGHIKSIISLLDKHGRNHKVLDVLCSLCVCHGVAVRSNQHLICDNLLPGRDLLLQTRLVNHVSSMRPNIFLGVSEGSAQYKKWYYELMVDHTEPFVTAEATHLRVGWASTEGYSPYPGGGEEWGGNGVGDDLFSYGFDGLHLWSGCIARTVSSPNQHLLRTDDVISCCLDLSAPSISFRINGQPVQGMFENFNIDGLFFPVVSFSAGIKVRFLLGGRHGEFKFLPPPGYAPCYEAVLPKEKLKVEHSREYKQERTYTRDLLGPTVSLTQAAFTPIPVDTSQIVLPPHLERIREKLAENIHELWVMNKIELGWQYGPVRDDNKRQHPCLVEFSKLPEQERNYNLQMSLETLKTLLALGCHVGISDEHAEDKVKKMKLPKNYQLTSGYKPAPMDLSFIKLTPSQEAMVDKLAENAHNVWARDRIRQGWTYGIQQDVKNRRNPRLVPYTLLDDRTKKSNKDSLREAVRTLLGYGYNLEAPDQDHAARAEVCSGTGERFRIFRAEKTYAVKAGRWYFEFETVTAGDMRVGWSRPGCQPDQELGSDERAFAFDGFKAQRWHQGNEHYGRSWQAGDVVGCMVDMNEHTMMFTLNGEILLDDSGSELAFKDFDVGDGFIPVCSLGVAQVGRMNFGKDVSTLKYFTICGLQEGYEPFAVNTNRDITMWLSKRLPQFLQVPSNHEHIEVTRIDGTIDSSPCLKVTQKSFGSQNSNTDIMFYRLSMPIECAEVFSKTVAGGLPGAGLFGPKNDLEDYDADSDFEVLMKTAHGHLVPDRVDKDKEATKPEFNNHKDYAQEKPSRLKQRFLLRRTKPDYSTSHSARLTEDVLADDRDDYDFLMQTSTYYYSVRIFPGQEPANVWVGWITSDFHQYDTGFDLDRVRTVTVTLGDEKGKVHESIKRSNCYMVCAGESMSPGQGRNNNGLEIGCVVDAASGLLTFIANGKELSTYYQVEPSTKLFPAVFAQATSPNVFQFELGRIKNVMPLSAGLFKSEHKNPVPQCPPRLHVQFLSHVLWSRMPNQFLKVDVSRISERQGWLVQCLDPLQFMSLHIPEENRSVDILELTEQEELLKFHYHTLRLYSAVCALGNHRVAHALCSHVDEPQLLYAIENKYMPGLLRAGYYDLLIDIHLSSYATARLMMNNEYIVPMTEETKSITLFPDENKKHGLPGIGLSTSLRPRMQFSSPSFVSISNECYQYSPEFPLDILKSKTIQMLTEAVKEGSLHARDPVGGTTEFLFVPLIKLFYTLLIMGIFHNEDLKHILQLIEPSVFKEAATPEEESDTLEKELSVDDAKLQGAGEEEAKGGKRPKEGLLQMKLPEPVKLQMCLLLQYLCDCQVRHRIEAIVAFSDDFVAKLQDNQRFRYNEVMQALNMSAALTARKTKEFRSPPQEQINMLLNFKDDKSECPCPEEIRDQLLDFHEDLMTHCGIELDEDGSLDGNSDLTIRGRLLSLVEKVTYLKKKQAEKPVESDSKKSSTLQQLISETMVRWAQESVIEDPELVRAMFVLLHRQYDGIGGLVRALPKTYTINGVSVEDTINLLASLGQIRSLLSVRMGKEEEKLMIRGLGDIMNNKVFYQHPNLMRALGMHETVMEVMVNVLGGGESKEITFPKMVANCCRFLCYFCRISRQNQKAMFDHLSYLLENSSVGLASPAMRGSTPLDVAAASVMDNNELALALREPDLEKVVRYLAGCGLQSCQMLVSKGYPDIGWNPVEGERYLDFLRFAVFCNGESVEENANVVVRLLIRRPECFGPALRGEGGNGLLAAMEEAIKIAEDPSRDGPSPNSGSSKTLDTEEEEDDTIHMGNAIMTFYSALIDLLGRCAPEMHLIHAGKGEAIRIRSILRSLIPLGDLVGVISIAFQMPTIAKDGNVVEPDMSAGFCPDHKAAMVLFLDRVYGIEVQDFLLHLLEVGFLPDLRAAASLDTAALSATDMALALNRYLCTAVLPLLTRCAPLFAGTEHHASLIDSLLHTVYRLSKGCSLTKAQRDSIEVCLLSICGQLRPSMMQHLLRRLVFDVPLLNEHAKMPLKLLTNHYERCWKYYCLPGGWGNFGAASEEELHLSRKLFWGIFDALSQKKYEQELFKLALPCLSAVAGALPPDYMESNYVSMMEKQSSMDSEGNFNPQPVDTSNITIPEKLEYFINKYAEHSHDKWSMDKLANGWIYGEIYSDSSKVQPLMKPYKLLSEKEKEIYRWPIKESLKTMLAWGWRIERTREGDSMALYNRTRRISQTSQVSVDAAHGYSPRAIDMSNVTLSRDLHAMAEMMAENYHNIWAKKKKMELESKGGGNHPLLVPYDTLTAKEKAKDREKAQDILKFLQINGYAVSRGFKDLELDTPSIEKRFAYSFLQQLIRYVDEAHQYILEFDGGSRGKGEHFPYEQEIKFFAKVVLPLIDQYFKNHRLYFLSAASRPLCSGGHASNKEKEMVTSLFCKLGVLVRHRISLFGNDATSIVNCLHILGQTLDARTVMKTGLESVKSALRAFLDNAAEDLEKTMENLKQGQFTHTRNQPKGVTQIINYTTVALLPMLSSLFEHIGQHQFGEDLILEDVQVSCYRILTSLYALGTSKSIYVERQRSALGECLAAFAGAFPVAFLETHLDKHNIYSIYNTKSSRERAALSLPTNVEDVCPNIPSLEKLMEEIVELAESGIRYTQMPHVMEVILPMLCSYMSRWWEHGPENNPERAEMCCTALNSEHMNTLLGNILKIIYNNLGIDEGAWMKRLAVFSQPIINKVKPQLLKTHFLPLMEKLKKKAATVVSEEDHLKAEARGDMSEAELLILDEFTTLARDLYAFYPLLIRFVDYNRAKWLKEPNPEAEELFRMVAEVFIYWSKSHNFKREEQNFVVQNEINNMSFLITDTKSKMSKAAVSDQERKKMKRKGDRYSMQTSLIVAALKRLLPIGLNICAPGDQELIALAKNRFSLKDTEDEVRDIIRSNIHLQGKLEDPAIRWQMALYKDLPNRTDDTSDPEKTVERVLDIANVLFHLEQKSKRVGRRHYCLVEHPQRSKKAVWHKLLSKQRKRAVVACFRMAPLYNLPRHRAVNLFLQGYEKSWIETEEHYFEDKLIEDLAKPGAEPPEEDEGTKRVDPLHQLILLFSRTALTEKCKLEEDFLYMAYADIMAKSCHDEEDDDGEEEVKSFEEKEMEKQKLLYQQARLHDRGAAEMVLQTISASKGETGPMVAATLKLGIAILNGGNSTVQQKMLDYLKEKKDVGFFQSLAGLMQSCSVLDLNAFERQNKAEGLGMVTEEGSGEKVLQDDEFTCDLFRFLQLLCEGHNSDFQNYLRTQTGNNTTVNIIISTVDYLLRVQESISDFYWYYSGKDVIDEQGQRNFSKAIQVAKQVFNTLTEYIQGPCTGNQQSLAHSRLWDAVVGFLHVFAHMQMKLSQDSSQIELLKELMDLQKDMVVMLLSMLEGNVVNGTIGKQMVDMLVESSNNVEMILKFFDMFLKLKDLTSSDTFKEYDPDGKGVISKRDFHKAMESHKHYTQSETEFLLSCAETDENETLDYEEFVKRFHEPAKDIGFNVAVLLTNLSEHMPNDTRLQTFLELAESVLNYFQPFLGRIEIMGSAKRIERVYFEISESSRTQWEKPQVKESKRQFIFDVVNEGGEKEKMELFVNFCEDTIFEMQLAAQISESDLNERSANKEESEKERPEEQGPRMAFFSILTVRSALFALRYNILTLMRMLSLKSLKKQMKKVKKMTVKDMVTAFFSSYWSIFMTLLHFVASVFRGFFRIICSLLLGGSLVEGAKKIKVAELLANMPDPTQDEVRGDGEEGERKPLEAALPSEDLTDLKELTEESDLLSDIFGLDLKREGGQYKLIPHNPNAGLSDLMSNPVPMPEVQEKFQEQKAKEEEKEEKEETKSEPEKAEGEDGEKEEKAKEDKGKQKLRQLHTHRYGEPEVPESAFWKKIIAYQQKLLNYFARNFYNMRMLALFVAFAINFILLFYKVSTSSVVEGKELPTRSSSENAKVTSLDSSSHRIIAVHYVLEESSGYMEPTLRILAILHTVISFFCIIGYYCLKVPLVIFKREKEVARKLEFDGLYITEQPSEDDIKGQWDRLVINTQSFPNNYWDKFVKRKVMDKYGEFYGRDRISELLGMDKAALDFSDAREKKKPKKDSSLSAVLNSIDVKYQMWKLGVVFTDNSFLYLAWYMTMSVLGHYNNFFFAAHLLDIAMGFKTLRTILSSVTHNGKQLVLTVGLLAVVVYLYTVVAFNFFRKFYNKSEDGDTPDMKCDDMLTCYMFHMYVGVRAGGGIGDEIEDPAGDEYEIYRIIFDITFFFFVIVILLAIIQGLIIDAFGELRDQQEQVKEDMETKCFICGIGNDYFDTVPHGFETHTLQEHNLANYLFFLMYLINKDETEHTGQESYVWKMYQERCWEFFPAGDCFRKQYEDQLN
T1 sequence (P68106 whole entry partner): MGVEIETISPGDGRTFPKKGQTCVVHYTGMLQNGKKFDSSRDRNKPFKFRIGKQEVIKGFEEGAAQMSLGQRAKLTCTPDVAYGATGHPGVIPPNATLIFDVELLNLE

RyR2 [2] = biological target: T1, RyR2; test: [3H]ryanodine binding to immunoprecipitated RyR2 (surrogate of channel open probability / leak); assay type: biochemical
Method: RyR2 was immunoprecipitated from 1.5 mg of tissue lysate using an anti-RyR2 specific antibody (25 μg) in 1.0 ml of a modified RIPA buffer overnight at 4° C. The immune complexes were incubated with protein A-Sepharose beads (Sigma) at 4° C. for 1 h, and the beads were washed three times with RIPA buffer, followed by 2 washes with ryanodine binding buffer (10 mM Tris-HCl, pH 6.8, 1 M NaCl, 1% CHAPS, 5 mg/ml phosphatidylcholine, and protease inhibitors). Immunoprecipitates were incubated in 0.2 ml of binding buffer containing 20 nM [^3H] ryanodine and either of 150 nM and 20 μm free Ca^2+ for 1 h at 37° C. Samples were diluted with 1 ml of ice-cold washing buffer (25 mm Hepes, pH 7.1, 0.25 m KCl) and filtered through Whatman GF/B membrane filters pre-soaked with 1% polyethyleneimine in washing buffer. Filters were washed three times with 5 ml of washing buffer. The radioactivity remaining on the filters is determined by liquid scintillation counting to obtain bound [^3H] ryanodine. Nonspecific binding was determined in the presence of 1000-fold excess of non-labeled ryanodine.

COc1ccc2c(c1)CN(Cc1ccc(C(=O)O)cc1)CCS2 [Compound 1]
calstabin2 binding to RyR2 (RyR2 [1]): increased | abnormal RyR2 activity ([3H]ryanodine binding) at resting Ca2+ concentration (RyR2 [2]; RyR2 immunoprecipitated from COVID-19 brain lysates, 150 nM free Ca2+, as percent of maximum binding (20 μM Ca2+), FIG. 3C, p<0.05 vs untreated COVID-19): decreased | RyR2 channel leak (RyR2 [2]; ex vivo treatment of COVID-19 patient brain samples): corrected; also recorded: fixed the channel leak
